Reference: PubChem BioAssay (NCI)
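How tested: cells in 96-well plates exposed to compound for 48 hours at five concentrations. TGI: total growth inhibition.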

Experiments:
Assay in all cases: NCI anticancer screen, dose series, 48 h
[1] = system: U251 CNS
[2] = system: MDA-N
[3] = system: OVCAR-8 ovarian
[4] = system: SK-OV-3 ovarian
[5] = system: SNB-19 CNS
[6] = system: HOP-62 NSCLC
[7] = system: OVCAR-4 ovarian
[8] = system: EKVX NSCLC
[9] = system: HCT-116 colon
[10] = system: COLO 205 colon
[11] = system: ACHN renal
[12] = system: SK-MEL-28 melanoma
[13] = system: SF-268 CNS
[14] = system: NCI-H522 lung
[15] = system: NCI/ADR-RES ovarian
[16] = system: T-47D breast
[17] = system: CAKI-1 renal
[18] = system: SW-620 colon
[19] = system: UO-31 renal
[20] = system: TK-10 renal
[21] = system: OVCAR-3 ovarian
[22] = system: SK-MEL-2 melanoma
[23] = system: HOP-92 NSCLC
[24] = system: HS 578T breast
[25] = system: MCF7 breast
[26] = system: SNB-75 CNS
[27] = system: MOLT-4 leukemia
[28] = system: SK-MEL-5 melanoma
[29] = system: PC-3 prostate
[30] = system: UACC-257 melanoma
[31] = system: IGROV1 ovarian
[32] = system: MDA-MB-435
[33] = system: MDA-MB-231 breast
[34] = system: NCI-H460 lung
[35] = system: SF-295 CNS
[36] = system: A498 renal
[37] = system: A549 NSCLC
[38] = system: M14 melanoma
[39] = system: NCI-H23 lung
[40] = system: CCRF-CEM leukemia
[41] = system: UACC-62 melanoma
[42] = system: SF-539 CNS
[43] = system: BT-549 breast
[44] = system: KM12 colon
[45] = system: RPMI-8226 leukemia
[46] = system: LOX IMVI melanoma
[47] = system: HL-60(TB) leukemia
[48] = system: K-562 leukemia
[49] = system: HT29 colon
[50] = system: RXF 393 renal
[51] = system: DU-145 prostate
[52] = system: MALME-3M melanoma
[53] = system: HCT-15 colon
[54] = system: SN12C renal
[55] = system: 786-0 renal
[56] = system: SR leukemia
[57] = system: OVCAR-5 ovarian
[58] = system: HCC-2998 colon
[59] = system: NCI-H226 lung

Measured: TGI

COc1ccc2c(c1)C(N)=C(Cc1ccncc1)C2=O
> 100 µM: [1] | [2] | [3] | [4] | [5] | [6] | [7] | [8] | [9] | [10] | [11] | [12] | [13] | [14] | [15] | [16] | [17] | [18] | [19] | [20] | [21] | [22] | [23] | [24] | [25] | [26] | [27] | [28] | [29] | [30] | [31] | [32] | [33] | [34] | [35] | [36] | [37] | [38] | [39] | [40] | [41] | [42] | [43] | [44] | [45] | [46] | [47] | [48] | [49] | [50] | [51] | [52] | [53] | [54] | [55]

CN(C)c1ccc(C2ON=C(c3ccccc3)N2C23CC4CC(CC(C4)C2)C3)cc1 (configuration not stated)
> 10 µM: [1] | [2] | [3] | [4] | [5] | [6] | [56] | [7] | [8] | [9] | [10] | [11] | [12] | [57] | [13] | [14] | [15] | [16] | [17] | [18] | [20] | [21] | [22] | [23] | [24] | [26] | [27] | [28] | [29] | [30] | [31] | [32] | [33] | [34] | [35] | [36] | [37] | [58] | [59] | [38] | [39] | [40] | [41] | [42] | [43] | [44] | [45] | [46] | [47] | [48] | [49] | [50] | [51] | [52] | [53] | [54] | [55]
